Read-outs that look alike come from different tables or passages of the source.
How the values were obtained:
LiGDP-MP = LiGDP-MP (Leishmania infantum, UniProt A4I048); experiment: Enzyme inhibition assay on purified recombinant LiGDP-MP (malachite green); format: biochemical
From the text: (§1) Recombinant His6 tagged GDP-MP from L. infantum (LiGDP-MP) was produced in E. coli and purified using Ni-nitrilotriacetic acid (Ni-NTA) and size exclusion chromatography Hiload^TM16/60 Superdex^TM 200 column as previously described for LdGDP-MP [12]. Recombinant His-tagged GDP-MP from human (hGDP-MP) was produced in E. coli and purified using a Mono-Q anion exchange column followed by a Hiload^TM 16/60 Superdex^TM 200 column as previously described.
(§2) Enzyme activities of both LiGDP-MP and hGDP-MP were measured at 37 °C for 20 min in 384 well plates in a 20-µL reaction containing 50 mM Tris-HCl pH 7.5, 5 mM MgCl2, 100 µM Mannose-1-phosphate, 100 µM GTP, 1 mM DTT, 0.1 U/mL inorganic pyrophosphatase (Sigma-Aldrich, Saint-Quentin-Fallavier, France) and 2 ng/µL of recombinant GDP-MP [12, 29]. The reaction was initiated by the addition of GDP-MP, and was stopped after adding 20 µL of revelation buffer containing malachite green (0.03% w/v), ammonium molybdate (0.2% w/v) and Triton X-100 (0.05% v/v) in HCl (0.7 M) for 5 min at 37 °C. The quantity of inorganic phosphate generated, representing GDP-MP activity, was determined by measuring OD650nm with a spectrometer plate reader Polar Omega (BMG LabTech, Champigny-sur-Marne, France).
(§3) To evaluate compounds on purified GDP-MPs, enzyme activities were measured as described above in the presence of 100 µg/mL of natural products originating from a chemical library from ICSN (Institut de Chimie des Substances Naturelles, Gif-sur-Yvette). The inhibitors were added in the reaction mix, before the addition of GDP-MP. The percentage of inhibition was then calculated in reference to untreated enzyme. The statistical parameter (Z-factor) was calculated to validate the quality of the HTS assays as described previously. As a control, compounds were evaluated in parallel in the same conditions on inorganic pyrophosphatase alone in order to discard false-positives. […] The IC50 were determined by nonlinear regression using GraphPad Prism 7.0 and further converted in µM in order to normalize units in Table 1. Enzyme inhibition assays were performed in triplicate in three independent experiments.

[1] = tested on: L. infantum intramacrophage amastigotes; experiment: In vitro antileishmanial evaluation on intramacrophage amastigotes (Giemsa counting in RAW 264.7); format: cell-based, Leishmania infantum; settings: for Selectivity Index: CC50/IC50 on intramacrophage amastigotes; for IC50: Leishmania infantum, RAW264.7, RAW 264.7 macrophages, 48 h treatment, read-out: L. infantum Intramacrophage Amastigotes IC50 (µM) ± SD
Procedure: Concerning the evaluation on intramacrophage amastigotes, the determination of the cytotoxicity as presented above was necessary to use the highest drug concentrations to be studied on the intramacrophage amastigote model. RAW 264.7 macrophages were plated in 16-well Lab-Tek chamber slides (Thermo-FisherVillebon-sur-Yvette, France) at a density of 2 × 10^4 cells per well and incubated for 24 h at 37 °C with 5% CO2. […] After 24 h of infection at 37 °C with 5% CO2, extracellular parasites were removed, and DMEM complete medium (100 µL) containing two-fold serial dilutions of the compounds, from 100 µM to 0.049 µM, was added to each well. A positive control treated with 1% DMSO was added to each Lab-tek chamber-slide. After 48 h of treatment, the medium was removed and cells were fixed in methanol for 1 min, stained in 10% Giemsa (Merck) for 5 min, and further rinsed in water before observation in phase contrast at the microscope (Olympus CX31; Olympus, Rungis, France). The number of amastigotes was counted by two independent experimenters for a total of 300 macrophages per well and the ratio of amastigotes per macrophage was determined for each condition. This ratio was further compared with the one of the positive control, considered as 100%, to determine a percentage of inhibition (% I), as follows: % I = 100 − ((ratio of amastigotes per macrophage in treated cells/ratio of amastigotes per macrophages in untreated cells) × 100). The activity of the compounds was expressed as IC50, which was determined by nonlinear regression using GraphPad Prism 7.0. […] In vitro antileishmanial evaluations were performed in triplicate in three independent experiments.

hGDP-MP = target: T1, hGDP-MP (Homo sapiens, UniProt Q9Y5P6); experiment: Enzyme inhibition assay on purified recombinant hGDP-MP (malachite green); format: biochemical; settings: 37 °C, 20 min, read-out: hGDP-MP IC50 (µM) ± SD
T1 construct: His; made in house; host or cells: E. coli
T1 sequence (Q9Y5P6 whole entry): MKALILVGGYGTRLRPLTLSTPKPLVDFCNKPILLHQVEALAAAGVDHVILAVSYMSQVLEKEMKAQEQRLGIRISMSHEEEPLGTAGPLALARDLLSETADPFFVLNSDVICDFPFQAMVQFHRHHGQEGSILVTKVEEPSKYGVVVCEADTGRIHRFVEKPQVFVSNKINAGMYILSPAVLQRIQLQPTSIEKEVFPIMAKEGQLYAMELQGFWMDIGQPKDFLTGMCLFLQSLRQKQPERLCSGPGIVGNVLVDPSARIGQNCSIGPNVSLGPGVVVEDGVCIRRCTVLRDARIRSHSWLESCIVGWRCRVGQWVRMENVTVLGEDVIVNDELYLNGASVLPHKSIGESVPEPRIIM
From the text: as §1, §2, §3

[2] = In vitro cytotoxicity on RAW 264.7 macrophages (resazurin); format: cell-based; settings: mouse, 48 h incubation, read-out: Cytotoxicity on RAW 264.7 CC50 (µM) ± SD
Procedure: The RAW 264.7 macrophages (ATCC) were cultured at 37 °C with 5% CO2 in DMEM complete medium containing Dulbecco′s Modified Eagle′s Medium (DMEM, Invitrogen, Thermo-Fisher, Villebon-sur-Yvette, France) supplemented with penicillin-streptomycin (100 U/mL; Invitrogen), and heat-inactivated fetal bovine serum (10%; HIFBS).
Cytotoxicity was evaluated on RAW 264.7 macrophages. Cells were plated in 96-well microplates at a density of 2 × 10^4 cells per well. After an incubation of 24 h at 37 °C with 5% CO2, the medium was removed in each well, and 100 µL of DMEM complete medium containing two-fold serial dilutions of the compounds, from 100 µM to 0.049 µM, was added to each well. After 48 h of incubation at 37 °C with 5% CO2, 10 µL of resazurin (450 µM) was added to each well, and further incubated in the dark for 4 h at 37 °C with 5% CO2. In living cells, resazurin is reduced in resorufin, and this conversion is monitored by measuring OD570nm (resorufin) and OD600nm (resazurin; multimode microplate reader Spark®, Tecan, Lyon, France). […] In vitro cytotoxicity assays were performed in triplicate in three independent experiments.

[3] = tested on: L. infantum axenic amastigotes; experiment: In vitro antileishmanial evaluation on axenic amastigotes (resazurin); format: cell-based, Leishmania infantum; settings: 72 h incubation, read-out: L. infantum Axenic Amastigotes IC50 (µM) ± SD
Procedure: Promastigotes of Leishmania infantum (MHOM/FR/2008/LEM5700) were cultured in the dark at 26 °C with 5% CO2 in M199 complete medium containing M199 medium supplemented with adenosine (100 µM), hemin (0.5 mg/L), Hepes (40 mM) pH 7.4, and heat inactivated foetal bovine serum (10%; HIFBS). Cultures of axenic amastigotes of L. infantum were adapted from. Briefly, axenic amastigotes of L. infantum were obtained from late log promastigotes diluted at 1 × 10^6/mL in M199 complete medium acidified at pH 5.5 and cultured at 37 °C with 5% CO2.
The evaluations of activity on axenic amastigotes were adapted from the protocols previously described. Briefly, two-fold serial dilutions of the compounds, from 100 µM to 0.049 µM, were performed in 100 µL of complete medium (see above) in 96-well microplates. Axenic amastigotes were then added to each well at a density of 10^6/mL in a 200 µL final volume. After 72 h of incubation at 37 °C with 5% CO2, 20 µL of resazurin (450 µM) was added to each well and further incubated in the dark for 24 h at 37 °C with 5% CO2. Cell viability was then monitored as described above. The activity of the compounds was expressed as IC50, which was determined by nonlinear regression using GraphPad Prism 7.0.

[4] = purified recombinant enzyme, 37 °C, 20 min, read-out: LiGDP-MP IC50 (µM) ± SD

Chain of LiGDP-MP (A4I048 entry or part of it): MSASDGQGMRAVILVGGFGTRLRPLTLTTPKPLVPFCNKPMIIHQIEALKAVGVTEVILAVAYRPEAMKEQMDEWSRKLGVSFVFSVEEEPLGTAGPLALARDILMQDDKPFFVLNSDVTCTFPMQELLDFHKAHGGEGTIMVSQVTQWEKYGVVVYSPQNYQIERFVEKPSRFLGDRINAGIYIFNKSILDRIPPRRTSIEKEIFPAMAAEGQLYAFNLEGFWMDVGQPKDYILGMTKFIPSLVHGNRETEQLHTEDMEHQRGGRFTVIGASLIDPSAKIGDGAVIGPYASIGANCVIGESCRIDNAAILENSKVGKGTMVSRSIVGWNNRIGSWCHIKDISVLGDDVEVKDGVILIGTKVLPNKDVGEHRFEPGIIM

Row | IC50 (LiGDP-MP; [4]) [µM] | IC50 [1] [µM] | IC50 (hGDP-MP) [µM] | IC50 ([3]; Leishmania infantum, 72 h) [µM] | IC50 [3] [µM] | Compound | Selectivity Index [1] | CC50 at 48 h [2] [µM] | IC50 (LiGDP-MP) [µM] | activity on leishmanial GDP-MP (in words) (LiGDP-MP; purified enzyme)
1 | 120 ± 27.5 | > 100 | 79.9 ± 5.9 | > 100 | – | CCCC/C=C\CCCCCc1cccc(O)c1C(=O)O [compound 4, Khookerianic acid B] | <0.8 | 83.1 ± 7 | – | –
2 | 16.9 ± 5 | > 100 | 29 ± 2.5 | > 100 | – | CCCCCCCCCCCCCc1cccc(O)c1C(=O)O [compound 7, 2-hydroxy-6-tridecylbenzoic acid] | – | > 100 | – | –
3 | 50.6 ± 4.8 | > 100 | 38.3 ± 4.1 | > 100 | – | CCCCCCCCCCCc1cccc(O)c1C(=O)O [compound 5, anagigantic acid] | – | > 100 | – | –
4 | 100 ± 16.6 | 42.7 ± 1.3 | 122 ± 26.1 | > 100 | – | CCCC/C=C\CCCCCCCc1cccc(O)c1C(=O)O [compound 6, (Z)-2-hydroxy-6-(tridec-8-en-1-yl)benzoic acid] | >2.3 | > 100 | – | –
5 | 5.9 ± 3.5 | – | 13.7 ± 14.2 | – | – | COc1cc(O)cc(CCCCCCCCCCCCCCCCc2cc(O)cc(O)c2)c1 [compound 2, 1-hydroxy-3-methoxy-5-[16′-(3′′,5′′-dihydroxyphenyl)-hexadecanyl]benzene] | – | – | – | –
6 | – | > 50 | 1.3 ± 0.2 | > 50 | 78.9 ± 3.1 | COc1cc(O)cc(CCCCCCC/C=C\CCCCCCCc2cc(O)cc(O)c2)c1 [compound 1, (8′Z)-1-hydroxy-3-methoxy-5-[16′-(3′′,5′′-dihydroxy-phenyl)-8′-hexadecen-1′-yl]benzene] | <0.7 | 34.4 ± 1.5 | – | –
7 | 2.3 | > 25 | 1.9 ± 0.4 | > 25 | 49.5 ± 4.2 | COc1cc(O)cc(CCCCCCCCC/C=C\CCCCCCCc2cc(O)cc(O)c2)c1 [compound 3, (10′Z)-1-hydroxy-3-methoxy-5-[18′-(3′′,5′′-dihydroxy-phenyl)-10′-octodecen-1′-yl]benzene] | <1.2 | 31.8 ± 1.6 | – | –

Row | Compound | IC50 (LiGDP-MP; [4]) [µM] | IC50 [1] [µM] | IC50 (hGDP-MP) [µM] | IC50 ([3]; Leishmania infantum, 72 h) [µM] | IC50 [3] [µM] | Selectivity Index [1] | CC50 at 48 h [2] [µM] | IC50 (LiGDP-MP) [µM] | activity on leishmanial GDP-MP (in words) (LiGDP-MP; purified enzyme)
8 | CCCCCCCCCCCCCCCCOP(=O)([O-])OCC[N+](C)(C)C [Miltefosine, hexadecylphosphocholine, reference compound] | – | 6.7 ± 1.7 | – | 1 ± 0.3 | – | – | – | > 250 | did not show any activity
